{"source": "patent US5008271A", "about": "“DC-88A derivatives” (Kyowa Hakko Kogyo Co., Ltd., priority 1988, dated 1991)", "key": {"HeLa S3 cells": {"test_system": "HeLa S3 cells", "experiment": "Growth inhibition test using HeLa S3 cells", "format": "cell-based", "protocol": "The pharmacological activity of Compound (I), Compound (II) and Compound (III) was determined by growth inhibition test using HeLa S3 cells.\nTest on growth inhibition of HeLa S3 cells:\nHeLa S3 cells diluted to 3×10^4 cells/ml with MEM medium containing 10% calf fetal serum and 2 mM glutamine were separately distributed by 0.1 ml each in each well of a 96 well microtiter plate.\nAfter culturing at 37° C. overnight in a CO2 incubator, 0.05 ml each of a test sample appropriately diluted with MEM medium was added to each well.\nAfter culturing the cells for 72 hours in the CO2 incubator, the culture supernatant was removed. After washing once with phosphate buffered physiological saline (PBS), 0.1 ml each of MEM medium containing 0.02% neutral red was added to each well and then cultured at 37° C. for an hour in the CO2 -incubator to stain the cells. After removing the culture supernatant, the cells were washed once with physiological saline, and the dye was extracted with 0.001 N HCl/30% ethanol. Absorbance at 550 nm of the extract was measured with a microplate reader. By comparing absorbance of extract of intact cells with that of the cells treated with a test compound in known concentrations IC50, i.e. the concentration which inhibited growth of the cells by 50% was determined."}, "dd strain male mice": {"test_system": "dd strain male mice", "experiment": "Acute toxicity test (minimum lethal dose)", "format": "in vivo", "conditions": "intraperitoneal, mortality observed for 14 days", "protocol": "Using dd strain male mice weighing 20 ±l g, a test compound was intraperitoneally administered. MLD (the minimum lethal dose) was determined by observing the mortality for 14 days after administration."}, "various bacteria": {"test_system": "various bacteria", "conditions": "against various bacteria; cited from earlier work"}, "[1]": {"test_system": "lymphocytic leukemia P388", "conditions": "lymphocytic leukemia P388, etc.; cited from earlier work"}, "[2]": {"conditions": "Homo sapiens, HeLa S3 cells, 72 hours, neutral red staining, read-out: IC50 (concentration which inhibited growth of the cells by 50%)"}, "[3]": {"conditions": "Homo sapiens, HeLa S3, 72 h, read-out: IC50 (concentration which inhibited growth of the cells by 50%), HeLa S3 cells, 72 hours, neutral red staining"}}, "note": "Read-outs that look alike come from different tables or passages of the source."}
{"smiles": "COc1cc2cc(C(=O)N3CC(CBr)c4c3cc(O)c3c4C(O)C(C)(COC(C)=O)N3)[nH]c2c(OC)c1OC", "note": "(stereo not drawn) [Compound 27]", "values": [{"measurement": "IC50", "setting": "HeLa S3 cells; [2]", "value": 3.3, "unit": "nM"}]}
{"smiles": "COc1cc2cc(C(=O)N3CC(CBr)c4c3cc(O)c3c4C(=O)C(C)(C(=O)OCc4ccccc4)N3)[nH]c2c(OC)c1OC", "note": "(stereo not drawn) [Compound 21]", "values": [{"measurement": "IC50", "setting": "HeLa S3 cells; [2]", "value": 1.9, "unit": "nM"}]}
{"smiles": "COC(=O)C1(C)Nc2c(OC(=O)N(C)C)cc3c(c2C1=O)C(CBr)CN3C(=O)c1cc2cc(OC)c(OC)c(OC)c2[nH]1", "note": "(stereo not drawn) [Compound 13]", "values": [{"measurement": "Acute Toxicity (MLD), minimum lethal dose", "setting": "dd strain male mice", "value": 2.5, "unit": "mg/kg"}]}
{"smiles": "CCCCCCCCCCCC(=O)Oc1cc2c(c3c1NC(C)(C(=O)OC)C3=O)C(CBr)CN2C(=O)c1cc2cc(OC)c(OC)c(OC)c2[nH]1", "note": "(stereo not drawn) [Compound 15]", "values": [{"measurement": "IC50", "setting": "HeLa S3 cells; [3]", "value": 0.042, "unit": "nM"}, {"measurement": "Acute Toxicity (MLD), minimum lethal dose", "setting": "dd strain male mice", "value": 0.5, "unit": "mg/kg"}]}
{"smiles": "C=CCOC(=O)C1(C)Nc2c(O)cc3c(c2C1=O)C(CBr)CN3C(=O)c1cc2cc(OC)c(OC)c(OC)c2[nH]1", "note": "(stereo not drawn) [Compound 19]", "values": [{"measurement": "IC50", "setting": "HeLa S3 cells; [2]", "value": 0.94, "unit": "nM"}]}
{"smiles": "CCOC(=O)C1(C)Nc2c(O)cc3c(c2C1=O)C(CBr)CN3C(=O)c1cc2cc(OC)c(OC)c(OC)c2[nH]1", "note": "(stereo not drawn) [Compound 17]", "values": [{"measurement": "IC50", "setting": "HeLa S3 cells; [2]", "value": 0.019, "unit": "nM"}]}
{"smiles": "C=CCC1(C)Nc2c(O)cc3c(c2C1=O)C(CBr)CN3C(=O)c1cc2cc(OC)c(OC)c(OC)c2[nH]1", "note": "(stereo not drawn) [Compound 25]", "values": [{"measurement": "IC50", "setting": "HeLa S3 cells; [2]", "value": 0.29, "unit": "nM"}]}
{"smiles": "COC(=O)C1(C)Nc2c(OC(C)=O)cc3c(c2C1=O)C(CBr)CN3C(=O)c1cc2cc(OC)c(OC)c(OC)c2[nH]1", "note": "(stereo not drawn) [Compound 7]", "values": [{"measurement": "Acute Toxicity (MLD), minimum lethal dose", "setting": "dd strain male mice", "value": 0.063, "unit": "mg/kg"}]}
{"smiles": "COC(=O)C1(C)Nc2c(O)cc3c(c2C1=O)C(CBr)CN3C(=O)c1cc2cc(OC)c(OC)c(OC)c2[nH]1", "note": "(stereo not drawn) [DC-89B2, reference compound]", "values": [{"measurement": "IC50", "setting": "HeLa S3 cells; [3]", "value": 0.014, "unit": "nM"}]}
{"smiles": "COC(=O)C1(C)Nc2c(O)cc3c(c2C1O)C(CBr)CN3C(=O)c1cc2cc(OC)c(OC)c(OC)c2[nH]1", "note": "(stereo not drawn) [Compound 6]", "values": [{"measurement": "IC50", "setting": "HeLa S3 cells; read-out: IC50 (concentration which inhibited growth of the cells by 50%), HeLa S3 cells, 72 hours, neutral red staining", "value": 0.2, "unit": "nM"}, {"measurement": "Acute Toxicity (MLD), minimum lethal dose", "setting": "dd strain male mice", "value": 1.3, "unit": "mg/kg"}]}
{"smiles": "COC(=O)C1(C)NC2=C(C1=O)C13CC1CN(C(=O)c1cc4cc(OC)c(OC)c(OC)c4[nH]1)C3=CC2=O", "note": "(stereo not drawn) [DC-88A]", "values": [{"measurement": "IC50", "setting": "HeLa S3 cells; [3]", "value": 0.039, "unit": "nM"}, {"measurement": "antibacterial activity", "setting": "various bacteria", "value": "exhibits not only an antibacterial activity against various bacteria"}, {"measurement": "antitumor activity against lymphocytic leukemia P388", "setting": "[1]", "value": "an antitumor activity against lymphocytic leukemia P388, etc."}]}
{"smiles": "COC(=O)C1(C)Nc2c(O[Si](C)(C)C(C)(C)C)cc3c(c2C1OC(C)=O)C(CBr)CN3C(=O)c1cc2cc(OC)c(OC)c(OC)c2[nH]1", "note": "(stereo not drawn) [Compound 8]", "values": [{"measurement": "Acute Toxicity (MLD), minimum lethal dose", "setting": "dd strain male mice", "value": 2.5, "unit": "mg/kg"}]}
{"smiles": "C=CCOC(=O)Oc1cc2c(c3c1NC(C)(C(=O)OC)C3=O)C(CBr)CN2C(=O)c1cc2cc(OC)c(OC)c(OC)c2[nH]1", "note": "(stereo not drawn) [Compound 14]", "values": [{"measurement": "IC50", "setting": "HeLa S3 cells; [3]", "value": 0.14, "unit": "nM"}, {"measurement": "Acute Toxicity (MLD), minimum lethal dose", "setting": "dd strain male mice", "value": 0.5, "unit": "mg/kg"}]}
{"smiles": "COC(=O)C1(C)Nc2c(O[Si](C)(C)C(C)(C)C)cc3c(c2C1=O)C(CBr)CN3C(=O)c1cc2cc(OC)c(OC)c(OC)c2[nH]1", "note": "(stereo not drawn) [Compound 1]", "values": [{"measurement": "Acute Toxicity (MLD), minimum lethal dose", "setting": "dd strain male mice", "value": 0.25, "unit": "mg/kg"}]}
{"smiles": "COC(=O)C1(C)Nc2c(O)cc3c(c2C1O)C(CBr)CN3C(=O)c1cc2cc(OC)c(OC)c(OC)c2[nH]1", "note": "(stereo not drawn) [Compound 5]", "values": [{"measurement": "IC50", "setting": "HeLa S3 cells; [3]", "value": 0.26, "unit": "nM"}, {"measurement": "Acute Toxicity (MLD), minimum lethal dose", "setting": "dd strain male mice", "value": 0.63, "unit": "mg/kg"}]}
